Measured values as given in US8895547B2, “Substituted phenyl-oxathiazine derivatives, method for producing them, drugs containing said compounds and the use thereof” (Sanofi, priority 2011, dated 2014).

target: T1, human 11β-HSD1 (Homo sapiens, UniProt P28845); assay: Enzymatic 11beta-HSD1 test (SPA-based detection); type: biochemical; conditions: human 11β-HSD1 microsome fraction, [1,2-3H]-cortisone, NADPH, 37° C. 1 hour
T1 construct: host or cells: microsome fraction
Procedure, shortened: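 Scintillation proximity detection: anti-cortisol antibody on SPA-PVT beads captured tritiated cortisol. The stop mix also contained 0.01 mM SSR110887 and was equilibrated 1 h at room temperature before counting. Cortisol came from [1,2-3H]-cortisone ([…]), turned over by human 11β-HSD1 microsomal protein (0.2 µg) with 0.25 mM NADPH in HEPES buffer, 37 °C, 1 h.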

T1 sequence (P28845 whole entry): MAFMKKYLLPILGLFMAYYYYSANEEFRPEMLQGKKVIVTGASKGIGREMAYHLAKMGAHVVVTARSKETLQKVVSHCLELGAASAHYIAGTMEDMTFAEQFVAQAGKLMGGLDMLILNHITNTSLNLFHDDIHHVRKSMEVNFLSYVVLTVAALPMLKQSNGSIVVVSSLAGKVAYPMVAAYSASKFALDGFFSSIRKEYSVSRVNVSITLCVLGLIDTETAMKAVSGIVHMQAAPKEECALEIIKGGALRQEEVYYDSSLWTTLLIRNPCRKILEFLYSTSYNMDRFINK

Compared with `CN1CCN(CCc2ccc(C3C(C)(C)OC(N[C@@H](CCO)c4ccccc4F)=NS3(=O)=O)cc2)CC1` (stereo partly drawn) [Example 148, (S)-3-(6,6-Dimethyl-5-{4-[2-(4-methyl-piperazin-1-yl)-ethyl]-phenyl}-4,4-dioxo-5,6-dihydro-4H-4lambda6-[1,4,3]oxathiazin-2-ylamino)-3-(2-fluoro-phenyl)-propan-1-ol], `CN1CCN(c2ccc(-c3ccc(C4C(C)(C)OC(N[C@@H](CCO)c5ccccc5F)=NS4(=O)=O)cc3)nc2)CC1` (stereo partly drawn) [Example 154, (S)-3-(6,6-Dimethyl-5-{4-[5-(4-methyl-piperazin-1-yl)-pyridin-2-yl]-phenyl}-4,4-dioxo-5,6-dihydro-4H-4lambda6-[1,4,3]oxathiazin-2-ylamino)-3-(2-fluoro-phenyl)-propan-1-ol] is 11-fold lower in IC50: 0.144 µM for the first, 0.013 µM for the second. The second is the more potent here.

`CC1(C)OC(N[C@@H](CCO)c2ccccc2F)=NS(=O)(=O)[C@H]1c1ccc(-c2cccc(C(N)=O)c2)cc1` [Example 149, 4′-{(S)-2-[(S)-1-(2-fluorophenyl)-3-hydroxy-propylamino]-6,6-dimethyl-4,4-dioxo-5,6-dihydro-4H-4lambda6-[1,4,3]oxathiazin-5-yl}-biphenyl-3-carboxamide] and `CC1(C)OC(N[C@@H](CCO)c2ccccc2F)=NS(=O)(=O)[C@@H]1c1ccc(-c2cccc(C(N)=O)c2)cc1` [Example 150, 4′-{(R)-2-[(S)-1-(2-fluorophenyl)-3-hydroxy-propylamino]-6,6-dimethyl-4,4-dioxo-5,6-dihydro-4H-4lambda6-[1,4,3]oxathiazin-5-yl}-biphenyl-3-carboxamide] are within 1.5-fold of each other in IC50: 0.004 µM for the first, 0.003 µM for the second.

Compared with `CC1(C)OC(N[C@@H](CCO)c2ccccc2F)=NS(=O)(=O)C1c1ccc(C2CCN(C(C)(C)C)CC2)cc1` (stereo partly drawn) [Example 151, (S)-3-{5-[4-(1-tert-Butyl-piperidin-4-yl)-phenyl]-6,6-dimethyl-4,4-dioxo-5,6-dihydro-4H-4lambda6-[1,4,3]oxathiazin-2-ylamino}-3-(2-fluorophenyl)-propan-1-ol], `C[C@H](NC1=NS(=O)(=O)C(c2ccc(C3CCN(C(C)(C)C)CC3)cc2)C(C)(C)O1)c1ccccc1F` (stereo partly drawn) [Example 171, {5-[4-(1-tert-Butyl-piperidin-4-yl)-phenyl]-6,6-dimethyl-4,4-dioxo-5,6-dihydro-4H-4lambda6-[1,4,3]oxathiazin-2-yl}-[(S)-1-(2-fluorophenyl)-ethyl]-amine] is 3.2-fold higher in IC50: 0.034 µM for the first, 0.108 µM for the second. The first is the more potent here.

Compared with `CC1(C)OC(N[C@@H](CCO)c2ccccc2F)=NS(=O)(=O)C1c1ccc(C2CCN(C3CC3)CC2)cc1` (stereo partly drawn) [Example 152, (S)-3-{5-[4-(1-Cyclopropyl-piperidin-4-yl)-phenyl]-6,6-dimethyl-4,4-dioxo-5,6-dihydro-4H-4lamda6-[1,4,3]oxathiazin-2-ylamino}-3-(2-fluorophenyl)-propan-1-ol], `C[C@H](NC1=NS(=O)(=O)C(c2ccc(C3CCN(C4CC4)CC3)cc2)C(C)(C)O1)c1ccccc1F` (stereo partly drawn) [Example 172, {5-[4-(1-Cyclopropyl-piperidin-4-yl)-phenyl]-6,6-dimethyl-4,4-dioxo-5,6-dihydro-4H-4lambda6-[1,4,3]oxathiazin-2-yl}-[(S)-1-(2-fluorophenyl)-ethyl]-amine] is 2.1-fold higher in IC50: 0.026 µM for the first, 0.055 µM for the second.

`CC(C)(O)c1ccc(C2C(C)(C)OC(N[C@@H](CCO)c3ccccc3F)=NS2(=O)=O)cc1` (stereo partly drawn) [Example 153, (S)-3-(2-fluorophenyl)-3-{5-[4-(1-hydroxy-1-methyl-ethyl)-phenyl]-6,6-dimethyl-4,4-dioxo-5,6-dihydro-4H-4lambda6-[1,4,3]oxathiazin-2-ylamino}-propan-1-ol] and `C[C@H](NC1=NS(=O)(=O)C(c2ccc(C(C)(C)O)cc2)C(C)(C)O1)c1ccccc1F` (stereo partly drawn) [Example 162, 2-(4-{2-[(S)-1-(2-fluorophenyl)-ethylamino]-6,6-dimethyl-4,4-dioxo-5,6-dihydro-4H-4lambda6-[1,4,3]oxathiazin-5-yl}-phenyl)-propan-2-ol] are within 1.5-fold of each other in IC50: 0.048 µM for the first, 0.052 µM for the second.

First: CC(=O)Oc1ccc(C2C(C)(C)OC(N[C@@H](CCO)c3ccccc3F)=NS2(=O)=O)cc1 (stereo partly drawn) [Example 155, Acetic acid 4-{2-[(S)-1-(2-fluorophenyl)-3-hydroxy-propylamino]-6,6-dimethyl-4,4-dioxo-5,6-dihydro-4H-4lambda6-[1,4,3]oxathiazin-5-yl}-phenyl ester]
Second: CC1(C)OC(N[C@@H](CCO)c2ccccc2F)=NS(=O)(=O)C1c1cccnc1 (stereo partly drawn) [Example 161, (S)-3-(6,6-Dimethyl-4,4-dioxo-5-pyridin-3-yl-5,6-dihydro-4H-4lambda6-[1,4,3]oxathiazin-2-ylamino)-3-(2-fluorophenyl)-propan-1-ol]
The IC50 of the first is 1.5-fold higher: 0.017 µM for the first, 0.011 µM for the second. The second is the more potent here.

`C[C@H](NC1=NS(=O)(=O)C(c2ccc(-c3cccc(C(N)=O)c3)cc2)C(C)(C)O1)c1ccccc1F` (stereo partly drawn) [Example 156, 4′-{2-[(S)-1-(2-fluorophenyl)-ethylamino]-6,6-dimethyl-4,4-dioxo-5,6-dihydro-4H-4lambda6-[1,4,3]oxathiazin-5-yl}-biphenyl-3-carboxamide] and `C[C@H](NC1=NS(=O)(=O)[C@@H](c2ccc(-c3cccc(C(N)=O)c3)cc2)C(C)(C)O1)c1ccccc1F` [Example 174, 4′-{(S)-2-[(S)-1-(2-fluorophenyl)-ethylamino]-6,6-dimethyl-4,4-dioxo-5,6-dihydro-4H-4lambda6-[1,4,3]oxathiazin-5-yl}-biphenyl-3-carboxamide] are within 1.5-fold of each other in IC50: 0.012 µM for the first, 0.018 µM for the second.

`C[C@H](NC1=NS(=O)(=O)C(c2ccc(-c3ccc(C(N)=O)cc3)cc2)C(C)(C)O1)c1ccccc1F` (stereo partly drawn) [Example 157, 4′-{2-[(S)-1-(2-fluorophenyl)-ethylamino]-6,6-dimethyl-4,4-dioxo-5,6-dihydro-4H-4lambda6-[1,4,3]oxathiazin-5-yl}-biphenyl-4-carboxamide] and `CC(=O)c1ccc(C2C(C)(C)OC(N[C@@H](C)c3ccccc3F)=NS2(=O)=O)cc1` (stereo partly drawn) [Example 163, 1-(4-{2-[(S)-1-(2-fluorophenyl)-ethylamino]-6,6-dimethyl-4,4-dioxo-5,6-dihydro-4H-4lambda6-[1,4,3]oxathiazin-5-yl}-phenyl)-ethanone] are within 1.5-fold of each other in IC50: 0.02 µM for the first, 0.015 µM for the second.

First: C[C@H](NC1=NS(=O)(=O)C(c2ccc(C3CCNCC3)cc2)C(C)(C)O1)c1ccccc1F (stereo partly drawn) [Example 158, [6,6-Dimethyl-4,4-dioxo-5-(4-piperidin-4-yl-phenyl)-5,6-dihydro-4H-4lambda6-[1,4,3]oxathiazin-2-yl]-[(S)-1-(2-fluorophenyl)-ethyl]-amin]
Second: C[C@H](NC1=NS(=O)(=O)C(c2ccc(C3CCN(C)CC3)cc2)C(C)(C)O1)c1ccccc1F (stereo partly drawn) [Example 159, {6,6-Dimethyl-5-[4-(1-methyl-piperidin-4-yl)-phenyl]-4,4-dioxo-5,6-dihydro-4H-4lambda6-[1,4,3]oxathiazin-2-yl}-[(S)-1-(2-fluorophenyl)-ethyl]-amine]
The IC50 of the first is 2.8-fold lower: 0.038 µM for the first, 0.108 µM for the second. The first is the more potent here.

Going from `C[C@H](NC1=NS(=O)(=O)C(c2ccc(C3CCN(CCO)CC3)cc2)C(C)(C)O1)c1ccccc1F` (stereo partly drawn) [Example 160, 2-[4-(4-{2-[(S)-1-(2-fluorophenyl)-ethylamino]-6,6-dimethyl-4,4-dioxo-5,6-dihydro-4H-4lambda6-[1,4,3]oxathiazin-5-yl}-phenyl)-piperidin-1-yl]-ethanol] to `C[C@H](NC1=NS(=O)(=O)C(c2ccc(N3CCN(C)CC3)cc2)C(C)(C)O1)c1ccccc1F` (stereo partly drawn) [Example 170, {6,6-Dimethyl-5-[4-(4-methyl-piperazin-1-yl)-phenyl]-4,4-dioxo-5,6-dihydro-4H-4lambda6-[1,4,3]oxathiazin-2-yl}-[(S)-1-(2-fluorophenyl)-ethyl]-amine], the IC50 rises from 0.064 µM to 0.246 µM (3.8-fold).

Compared with `C[C@H](NC1=NS(=O)(=O)C(c2ccc(-c3ccccc3)nc2)C(C)(C)O1)c1ccccc1F` (stereo partly drawn) [Example 164, [6,6-Dimethyl-4,4-dioxo-5-(6-phenyl-pyridin-3-yl)-5,6-dihydro-4H-4lambda6-[1,4,3]oxathiazin-2-yl]-[(S)-1-(2-fluorophenyl)-ethyl]-amine], `CC1(C)OC(N[C@@H](CCO)c2ccccc2F)=NS(=O)(=O)C1c1ccc(-c2ccccc2)nc1` (stereo partly drawn) [Example 165, (S)-3-[6,6-Dimethyl-4,4-dioxo-5-(6-phenyl-pyridin-3-yl)-5,6-dihydro-4H-4lambda6-[1,4,3]oxathiazin-2-ylamino]-3-(2-fluorophenyl)-propan-1-ol] is 3.9-fold lower in IC50: 0.027 µM for the first, 0.007 µM for the second.

First: C[C@H](NC1=NS(=O)(=O)C(c2ccc(-c3cnc(N4CCNCC4)nc3)cc2)C(C)(C)O1)c1ccccc1F (stereo partly drawn) [Example 166, {6,6-Dimethyl-4,4-dioxo-5-[4-(2-piperazin-1-yl-pyrimidin-5-yl)-phenyl]-5,6-dihydro-4H-4lambda6-[1,4,3]oxathiazin-2-yl}-[(S)-1-(2-fluorophenyl)-ethyl]-amine]
Second: CC1(C)OC(N[C@@H](CCO)c2ccccc2F)=NS(=O)(=O)C1c1ccc(-c2cnc(N3CCNCC3)nc2)cc1 (stereo partly drawn) [Example 169, (S)-3-{6,6-Dimethyl-4,4-dioxo-5-[4-(2-piperazin-1-yl-pyrimidin-5-yl)-phenyl]-5,6-dihydro-4H-4lambda6-[1,4,3]oxathiazin-2-ylamino}-3-(2-fluoro-phenyl)-propan-1-ol]
The IC50 of the first is 2-fold higher: 0.004 µM for the first, 0.002 µM for the second. The second is the more potent here.

Compared with `C[C@H](NC1=NS(=O)(=O)C(c2ccc(N3CCNCC3)cc2)C(C)(C)O1)c1ccccc1F` (stereo partly drawn) [Example 167, [6,6-Dimethyl-4,4-dioxo-5-(4-piperazin-1-yl-phenyl)-5,6-dihydro-4H-4lambda6-[1,4,3]oxathiazin-2-yl]-[(S)-1-(2-fluorophenyl)-ethyl]-amine], `C[C@H](NC1=NS(=O)(=O)C(c2cccnc2)C(C)(C)O1)c1ccccc1F` (stereo partly drawn) [Example 168, (6,6-Dimethyl-4,4-dioxo-5-pyridin-3-yl-5,6-dihydro-4H-4lambda6-[1,4,3]oxathiazin-2-yl)-[(S)-1-(2-fluorophenyl)-ethyl]-amine] is 5.8-fold lower in IC50: 0.122 µM for the first, 0.021 µM for the second. The second is the more potent here.

`C[C@H](NC1=NS(=O)(=O)C(c2ccc(-c3ccccc3CN(C)C)cc2)C(C)(C)O1)c1ccccc1F` (stereo partly drawn) [Example 173, [5-(2′-Dimethylaminomethyl-biphenyl-4-yl)-6,6-dimethyl-4,4-dioxo-5,6-dihydro-4H-4lambda6-[1,4,3]oxathiazin-2-yl]-[(S)-1-(2-fluorophenyl)-ethyl]-amin] was tested, and the IC50 was 0.137 µM.
